Measurements published in US6380168B1, “Method for promoting hair growth” (Nomura Co., Ltd., priority 1992, dated 2002).
Several values for one entry are separate records, joined by “and”; a condition that tells them apart may be missing. Equal entries are not always repeated.

What was measured:
[1] = test system: tyrosinase; test: Tyrosinase inhibition (L-Dopa, dopachrome absorbance at 475 nm, procedure of Manson and Peterson); type: biochemical, mushroom
Procedure: This experiment was conducted according to the procedure of Manson and Peterson. A 0.5 ml L-Dopa solution (0.03% in pH6.8 PBS) was added to 0.5 ml of a test liquid, and incubated for 5 minutes at 25° C. After which, a 0.5 ml of tyrosinase solution (obtained from a mushroom) was added and the mixture was further incubated for 5 minutes at 25° C. […] Kojic acid was used for a positive control test.

[2] = Skin blood flow in rats after topical application, measured with a Laser Doppler Flowmeter; type: in vivo, Wistar male rats; conditions: rat, measured after 20 minutes
Procedure: Wistar male rats (180 to 200 g weights) were employed as experimental animals. The quantity of the skin blood in this experiment was measured with a Laser Doppler Flowmeter (PF2B, Perimed). The backs of rats were sheared. A day later, the rats were anesthetisized with urethane (1 g/Kg) and a quantity of blood flow was measured. This quantity was defined as a normal flow.
Immediately after the measurement of the normal flow, a group of rats were treated with topical application of 25 μl of test liquid in 50% ethanol solution and a group of rats were treated with topical application of 50% ethanol solution as a control. The skin blood flow was measured at 20 minute, 40 minute and 60 minute intervals. MeOH extract from Calanthe discolor Lindl. (CDM-ext: 0.5% and 2.0%), Calanthoside A (0-20%), and indilbin (0.2%) were tested, and the results for the extract are shown in Table 1.
The ability of Calanthoside B to increase skin blood flow can be used to promote hair growth.

OCC1O[C@@H](OCC2O[C@@H](Oc3c[nH]c4ccccc34)C(O)C(O)[C@@H]2O)C(O)C(O)[C@@H]1O (stereo partly drawn) [Calanthoside A, 3-O-β-D-glucopyranosyl (1-6)-β-D-glucopyranosylindole]
% Inhibition ([1]; concentration 50 μg/ml): 38.6% | % Inhibition ([1]; concentration 200 μg/ml): 65.9% | skin blood flow (result in words) ([2]; Calanthoside A (0-20%)): increases skin blood flow

OCC1O[C@@H](Oc2c(S[C@@H]3OC(CO)[C@@H](O)C(O)C3O)[nH]c3ccccc23)C(O)C(O)[C@@H]1O (stereo partly drawn) [Calanthoside B, 2-S-β-D-glucopyranosyl-3-O-β-D-glucopyrannosyl-2-mercaptoindole]
skin blood flow (result in words) ([2]; 0.2%): increases skin blood flow

O=c1cc(CO)occ1O [Kojic Acid, Kojic acid]
% Inhibition ([1]; concentration 5 (μM)): 32.5% and 28.2% and 23.9% | % Inhibition ([1]; concentration 20 (μM)): 66.0% and 62.2% and 59.3% | % Inhibition ([1]; concentration 50 (μM)): 82.7% and 80.3% and 78.6% | anti-tyrosinase activity (result in words) ([1]; summary of Table 2): strong anti-tyrosinase activity
